Measurements taken from patent publication US20170014472A1, “ATTENUATION OF INTRAPULMONARY INFLAMMATION” (APEPTICO FORSCHUNG UND E[…], priority 2014, published 2017).
Where “and” joins values, the source holds several entries; their conditions need not be identical. Equal values may be shown once. Read-outs that look alike come from different tables or passages of the source.

Tests used:
Format in all cases: in vivo, pig
[1] = system: intrapulmonary mRNA of IL-1β, IL-6, TNF-α, COX-2, iNOS, amphiregulin, tenascin-c; assay: Intrapulmonary mRNA quantification (real-time PCR, normalized to PPIA) in lung tissue of LPS-septic pigs
Procedure: (§1) Following instrumentation baseline parameters were assessed at healthy state. FIG. 1 summarizes the experimental protocol: systemic inflammation was induced by continuous LPS infusion (Escherichia coli serotype O111:B4, Sigma-Aldrich, Switzerland) for one hour at 100 μg kg^−1 h^−1, followed by 10 μg kg^−1h^−1 for the entire experiment. Initial high-dose infusion was combined with a non-protective ventilation setting (Vt 25 mL kg^−1, zero PEEP, FiO2 1.0) to add a VILI component. Afterwards the ventilation mode was switched to a more lung protective setting: Vt of 8 mL kg^−1, PEEP 5 cm H2O, FiO2 of 0.4-0.5, and a variable respiratory rate to maintain a pH>7.2. The animals were monitored over six hours after sepsis induction. During the induction phase a non-participant randomized the animals into two groups and prepared the peptide solution as previously described (Hartmann E K et al, Acta anaesthesiologica Scandinavica 2013, 57(3):334-341) for blinded endotracheal inhalation.
(§2) Group (1) animals, to which 1 mg kg^−1 of a compound of formula I of the amino acid sequence SEQ ID NO:5 was administered at zero and three hours;
To determine intrapulmonary inflammation mRNA levels of pro-inflammatory cytokines interleukin-1β (IL-1β), interleukin-6 (IL-6), TNF-α, and enzymes prostaglandin G/H synthase-2 (COX-2) and inducible nitric oxide synthase (iNOS) were quantified. Amphiregulin and tenascin-c expression levels were examined as surrogates of mechanical stress and remodeling. Four representative samples from the left lung (upper/lower lobe, each dependent/non-dependent) were collected, snap frozen in liquid nitrogen and stored at −80° C. RNA extraction and quantification procedure by real-time polymerase chain reaction (Lightcycler 480 PCR System, Roche Applied Science, Germany) was conducted as previously described in detail.[17-19] mRNA expression data were normalized against peptidylprolyl isomerase A (PPIA) as control gene.
(§3) Data are expressed as median and interquartile range (IQR) respectively box-plots. Intergroup comparisons were tested with the Mann-Whitney-U-Test. If multiple testing was performed, P values were adjusted by the Bonferroni correction. Intragroup time courses of repetitively measured parameters were analyzed by Friedman ANOVA on ranks and post-hoc Student-Newman-Keuls-Test. P values below 0.05 were regarded as significant. Physiological data (ventilator and hemodynamic data) as set out in Table 1 were analyzed in explorative manner only. The statistical software SigmaPlot 11.0 (Systat Inc., USA) was used.

[2] = system: porcine model of lipopolysaccharide (LPS)-induced sepsis; details: for CO (cardiac output) / CVP (central venous pressure) / EVLW (extravascular lung water content) / MAP (mean arterial pressure) / MPAP (mean pulmonary arterial pressure) / NA (noradrenaline dosage required for hemodynamic stability) / PaCO2 (arterial partial pressure of carbon dioxide) / Pendinsp (end-inspiratory pressure) / RR (respiratory rate): median
Procedure: Following animal care committee approval (Landesuntersuchungsamt Rheinland-Pfalz, Koblenz, Germany; approval number 23 177-07/G12-1-058) 18 juvenile pigs (weight 25-27 kg) were examined in a randomized, investigator-blinded setting.
After sedation with intramuscular injection of ketamine (8 mg kg^−1) and midazolam (0.2 mg kg^−1) and preparation of vascular access, anesthesia was induced and maintained by intravenous propofol and fentanyl administration (8-12 mg kg^−1 h^−1/0.1-0.2 mg h^−1). A single dose of atracurium (0.5 mg kg^−1) was applied to facilitate orotracheal intubation. Ventilation (Respirator: AVEA®, CareFusion, USA) was started in pressure-controlled mode with a tidal volume of (Vt) of 8 mL kg^−1, positive end-expiratory pressure (PEEP) of 5 cmH2O, FiO2 of 0.3-0.4 and a variable respiratory rate to maintain normocapnia. A balanced saline solution (Sterofundin iso, B. Braun, Germany) was continuously infused at a rate of 10 mL kg^−1h^−1. Vascular catheters were placed ultrasound-guided in Seldinger's technique and under sterile conditions: an arterial line, a pulse contour cardiac output catheter (PiCCO, Pulsion Medical Systems, Germany) and central venous line were inserted via femoral vein access. A 7.5-French introducer for a pulmonary artery catheter was placed via the right internal jugular vein. Ventilatory and extended hemodynamic parameters were recorded continuously (Datex S/5, GE Healthcare, Germany). Body temperature was measured by a rectal probe and normothermia was maintained by body surface warming
as §1, §2
To maintain hemodynamic stability (mean arterial pressure >60 mmHg) additional fluid boli were administered (150 ml of balanced saline or hydroxyethyl starch once every hour). Persisting instability was treated by continuous central venous noradrenaline infusion. At the end of the experiments the animals were killed in deep general anesthesia by intravenous injection of propofol (200 mg) and potassium chloride (40 mval).
as §3

[3] = system: LPS-induced lung injury; assay: Post-mortem macroscopic and histopathological lung injury scoring and lung wet to dry ratio in LPS-septic pigs; details: for hemorrhage, histopathological score / alveolar edema, histopathological score / epithelial destruction, histopathological score / inflammatory infiltration, histopathological score / interstitial edema, histopathological score / microatelectasis, histopathological score / overdistension, histopathological score: post-mortem at 6 h, median (IQR); for hemorrhage, histopathological score: 0 to 5 points, CTRL higher, P<0.05 vs. Group (1); for alveolar edema, histopathological score / epithelial destruction, histopathological score / inflammatory infiltration, histopathological score / interstitial edema, histopathological score / microatelectasis, histopathological score / overdistension, histopathological score: severity 0 to 5 points
Procedure: as §1, §2
The lungs were removed en-bloc after thoracotomy. A macroscopic lung injury score was assessed as previously described in detail (Lim C M et al, Lung 2003, 181(1):23-34). Four ventral and dorsal segments (each upper/lower right, upper/lower left) of the lung surface were examined for hemorrhage and congestion (2 points>50%, 1 point for<50%, 0 points for no or minimal changes). The right lung was fixed in 10% buffered formalin. Representative tissue samples were paraffin embedded and cut for hematoxylin and eosin staining A blinded investigator under supervision of a senior pathologist performed the histopathological assessment. In different lung regions (non-dependent periphery and bronchial, dependent periphery and bronchial) morphological changes were rated for seven criteria (alveolar edema, interstitial edema, hemorrhage, inflammatory infiltration, epithelial damage, microatelectasis and overdistension). The severity of each parameter ranged from 0 (no occurrence) to 5 points (complete field). For every lung region we used the mean value of four non-overlapping microscopy fields. The sum of the regional scores in all lung regions adds to a maximum injury score of 140 points (7 parameters×5 maximum points per parameter from 4 lung regions). Additionally the regional distribution of each parameter was assessed in the dependent versus non-dependent lung regions. Similar scoring procedures were described previously (Spieth P M et al, Intensive Care Med 2007, 33(2):308-314; Wang H M et al, Eur Surg Res 2010, 45(3-4):121-133).The left lung was weighted immediately after removal and dried afterwards at 60° C. for 72 hours to determine the dry weight and wet to dry ratio (W/D).
as §3

[4] = system: plasma IL-6 and TNF-α; assay: Plasma levels of IL-6 and TNF-α by ELISA in LPS-septic pigs; details: vs CTRL; repetitive inhalation; compared with the effect on pulmonary expression
Procedure: as §1, with “During the induction phase a non-participant randomized the animals into two groups and prepared the peptide solution as previously described (Hartmann E K et al, Acta anaesthesiologica Scandinavica 2013, 57(3):334-341) for blinded endotracheal inhalation.” left out
Blood gas values were obtained using a Rapidlab 248 device (Bayer Healthcare, Germany) Hematological parameters were sampled during baseline, sepsis induction and after three and six hours. Lactate plasma levels, leucocyte and platelet counts were analyzed by the Institute of Laboratory Medicine, Medical Center of the Johannes Gutenberg-University. The plasma levels of IL-6 and TNF-α were determined by quantifying enzyme linked immunosorbent assays according to the manufacturer's instructions (Porcine IL-6 Quantikine ELISA, Porcine TNF-α Quantikine ELISA, R&D Systems, Germany).

[5] = vs CTRL, lung tissue at 6 h, 1 mg kg^−1 inhaled at zero and three hours
[6] = 3 h, 1 mg kg^−1 inhaled at zero and three hours
[7] = 6 h, 1 mg kg^−1 inhaled at zero and three hours
[8] = Baseline, before LPS and inhalation
[9] = Sepsis/VILI induction, before first inhalation

## Cyclo(4-aminobutanoic acid-GQRETPEGAEAKPWYD) (XGQRETPEGAEAKPWYD; cyclized via N-terminal 4-aminobutanoic acid to Asp side chain; cyclized compound for use in inflammation) [SEQ ID NO:5, amide bond between amino group of N-terminal 4-aminobutanoic acid and β-carboxyl side chain of C-terminal aspartic acid]
[1]; at 6 hours post insult, peptide inhalation, LPS-induced lung injury in pigs
  intrapulmonary inflammatory response: significantly reduced
[1]; vs CTRL, p=0.003, lung tissue at 6 h, 1 mg kg^−1 inhaled at zero and three hours
  intrapulmonary overall mRNA expression of COX-2: significantly lower
[1]; vs CTRL, p=0.015, lung tissue at 6 h, 1 mg kg^−1 inhaled at zero and three hours
  intrapulmonary tenascin-c expression: decreased
[1]; vs CTRL, p=0.041, lung tissue at 6 h, 1 mg kg^−1 inhaled at zero and three hours
  intrapulmonary overall mRNA expression of TNF-α: significantly lower
[1]; vs CTRL, p=0.043, lung tissue at 6 h, 1 mg kg^−1 inhaled at zero and three hours
  intrapulmonary overall mRNA expression of IL-6: significantly lower
[1]; [5]
  intrapulmonary mRNA expression of IL-1β: less differences
  intrapulmonary mRNA expression of iNOS: less differences
[2]; [6]
  CO (cardiac output): 3.2 L/min
  CVP (central venous pressure): 11 mmHg
  EVLW (extravascular lung water content): 12 mL/kg
  MAP (mean arterial pressure): 61 mmHg
  MPAP (mean pulmonary arterial pressure): 33 mmHg
  NA (noradrenaline dosage required for hemodynamic stability): 0.2 µg/kg/min
  PaCO2 (arterial partial pressure of carbon dioxide): 43 mmHg
  Pendinsp (end-inspiratory pressure): 22 cmH2O
  RR (respiratory rate): 34 min⁻¹
[2]; [7]
  CO (cardiac output): 3.7 L/min
  CVP (central venous pressure): 13 mmHg
  EVLW (extravascular lung water content): 13 mL/kg
  MAP (mean arterial pressure): 66 mmHg
  MPAP (mean pulmonary arterial pressure): 30 mmHg
  NA (noradrenaline dosage required for hemodynamic stability): 0.8 µg/kg/min
  PaCO2 (arterial partial pressure of carbon dioxide): 43 mmHg
  Pendinsp (end-inspiratory pressure): 19 cmH2O
  RR (respiratory rate): 32 min⁻¹
[2]; [8]
  CO (cardiac output): 4.5 L/min
  CVP (central venous pressure): 11 mmHg
  EVLW (extravascular lung water content): 10 mL/kg
  MAP (mean arterial pressure): 90 mmHg
  MPAP (mean pulmonary arterial pressure): 22 mmHg
  NA (noradrenaline dosage required for hemodynamic stability): 0 µg/kg/min
  PaCO2 (arterial partial pressure of carbon dioxide): 45 mmHg
  RR (respiratory rate): 29 min⁻¹
[2]; Baseline, healthy state before LPS and inhalation
  Pendinsp (end-inspiratory pressure): 14 cmH2O
[2]; [9]
  CO (cardiac output): 4.5 L/min
  CVP (central venous pressure): 10 mmHg
  EVLW (extravascular lung water content): 11 mL/kg
  MAP (mean arterial pressure): 100 mmHg
  MPAP (mean pulmonary arterial pressure): 23 mmHg
  NA (noradrenaline dosage required for hemodynamic stability): 0 µg/kg/min
  PaCO2 (arterial partial pressure of carbon dioxide): 35 mmHg
  Pendinsp (end-inspiratory pressure): 22 cmH2O
  RR (respiratory rate): 9 min⁻¹
[2]; pig, in vivo
  Raw (airway resistance): 10 cmH2O L^−1s^−1 and 12 cmH2O L^−1s^−1 and 11 cmH2O L^−1s^−1
[3]; dependent lung regions
  hemorrhage, histopathological score: 0.1 (0.8)
  alveolar edema, histopathological score: 0 (0.1)
  epithelial destruction, histopathological score: 0 (0)
  inflammatory infiltration, histopathological score: 3.4 (1.6)
  interstitial edema, histopathological score: 1.3 (0;8)
  microatelectasis, histopathological score: 3.8 (2.4)
  overdistension, histopathological score: 3.5 (1.7)
[3]; left lung, vs CTRL Group (2), trend
  pulmonary wet to dry ratio (W/D): higher
[3]; non-dependent lung regions
  hemorrhage, histopathological score: 0 (0)
  alveolar edema, histopathological score: 0 (0)
  epithelial destruction, histopathological score: 0 (0)
  inflammatory infiltration, histopathological score: 3.8 (1.4)
  interstitial edema, histopathological score: 0.9 (1.1)
  microatelectasis, histopathological score: 3.8 (1.4)
  overdistension, histopathological score: 4.1 (0.9)
[3]; vs CTRL Group (2), sustained lung injury in both groups
  post-mortem macroscopic and histologic lung injury: trend towards a less pronounced damage
[4]
  plasma level of IL-6: less affected
  plasma level of TNF-α: less affected
